Assay results from PubChem BioAssay AID248 (DTP/NCI, 2004).
Toxic doses and inconclusive results are not listed. Rule as the data show it: active = T/C of 150% or more; inactive = T/C below 125%.

Tested on: L1210 leukemia ip in BDF1 mice, survival T/C
Assay: NCI In Vivo Anticancer Drug Screen. Data for tumor model L1210 Leukemia (intraperitoneal) in B6D2F1 (BDF1) mice
Settings: endpoint: mean survival time, higher = longer survival
Procedure, shortened: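 Ratio derived from survival: compound-dosed mice over vehicle-dosed mice, all bearing a transplantable tumor.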

[1] = dose: 75.0 mg/kg/injection, schedule: Q01DX001 (ip), vehicle: other
[2] = dose: 100.0 mg/kg/injection, schedule: Q01DX009 (ip), vehicle: saline
[3] = dose: 100.0 mg/kg/injection, schedule: Q04DX003 (ip), vehicle: saline
[4] = dose: 200.0 mg/kg/injection, schedule: Q01DX009 (ip), vehicle: saline
[5] = dose: 200.0 mg/kg/injection, schedule: Q04DX003 (ip), vehicle: saline
[6] = dose: 400.0 mg/kg/injection, schedule: Q01DX009 (ip), vehicle: saline
[7] = dose: 400.0 mg/kg/injection, schedule: Q04DX003 (ip), vehicle: saline
[8] = dose: 100.0 mg/kg/injection, schedule: Q01DX009 (ip), vehicle: Klucel (hydroxypropylcellulose) (HPC)
[9] = dose: 100.0 mg/kg/injection, schedule: Q04DX003 (ip), vehicle: Klucel (hydroxypropylcellulose) (HPC)
[10] = dose: 200.0 mg/kg/injection, schedule: Q01DX009 (ip), vehicle: Klucel (hydroxypropylcellulose) (HPC)
[11] = dose: 200.0 mg/kg/injection, schedule: Q04DX003 (ip), vehicle: Klucel (hydroxypropylcellulose) (HPC)
[12] = dose: 400.0 mg/kg/injection, schedule: Q01DX009 (ip), vehicle: Klucel (hydroxypropylcellulose) (HPC)
[13] = dose: 400.0 mg/kg/injection, schedule: Q04DX003 (ip), vehicle: Klucel (hydroxypropylcellulose) (HPC)
[14] = dose: 100.0 mg/kg/injection, schedule: Q04DX002 (ip), vehicle: saline
[15] = dose: 200.0 mg/kg/injection, schedule: Q04DX002 (ip), vehicle: saline
[16] = dose: 400.0 mg/kg/injection, schedule: Q04DX002 (ip), vehicle: saline
[17] = dose: 100.0 mg/kg/injection, schedule: Q01DX001 (ip), vehicle: carboxymethylcellulose (CMC)
[18] = dose: 200.0 mg/kg/injection, schedule: Q01DX001 (ip), vehicle: carboxymethylcellulose (CMC)
[19] = dose: 400.0 mg/kg/injection, schedule: Q01DX001 (ip), vehicle: carboxymethylcellulose (CMC)
[20] = dose: 100.0 mg/kg/injection, schedule: Q01DX001 (ip), vehicle: saline
[21] = dose: 200.0 mg/kg/injection, schedule: Q01DX001 (ip), vehicle: saline
[22] = dose: 400.0 mg/kg/injection, schedule: Q01DX001 (ip), vehicle: saline
[23] = dose: 100.0 mg/kg/injection, schedule: Q04DX002 (ip), vehicle: Klucel (hydroxypropylcellulose) (HPC)
[24] = dose: 200.0 mg/kg/injection, schedule: Q04DX002 (ip), vehicle: Klucel (hydroxypropylcellulose) (HPC)
[25] = dose: 400.0 mg/kg/injection, schedule: Q04DX002 (ip), vehicle: Klucel (hydroxypropylcellulose) (HPC)

Measured: T/C

O=C(CBr)c1cccc2c1cc(Br)c1ccccc12
inactive: dose: 13.3 mg/kg/injection, schedule: Q01DX Z (ip), vehicle: methylcellulose (MC) 94 % of control | dose: 20.0 mg/kg/injection, schedule: Q01DX Z (ip), vehicle: methylcellulose (MC) 93 % of control | dose: 30.0 mg/kg/injection, schedule: Q01DX Z (ip), vehicle: methylcellulose (MC) 100 % of control

Cc1cc(C)cc(C(O)(C(=O)O)c2ccccc2)c1 (stereo not drawn)
inactive: [1] 103 % of control | dose: 150.0 mg/kg/injection, schedule: Q01DX001 (ip), vehicle: other 103 % of control | dose: 300.0 mg/kg/injection, schedule: Q01DX001 (ip), vehicle: other 106 % of control

COc1cc([N+](=O)[O-])c(C(OC(C)=O)OC(C)=O)cc1Br
inactive: dose: 100.0 mg/kg/injection, schedule: Q01DX001 (ip), vehicle: acetone 98 % of control | [2] 94 % of control | [3] 105 % of control | dose: 200.0 mg/kg/injection, schedule: Q01DX001 (ip), vehicle: acetone 88 % of control | [4] 86 % of control | [5] 109 % of control | dose: 400.0 mg/kg/injection, schedule: Q01DX001 (ip), vehicle: acetone 97 % of control | [6] 88 % of control | [7] 105 % of control

CN(C(=O)CCCc1ccc(N(CCCl)CCCl)cc1)c1ccccc1
inactive: dose: 2.0 mg/kg/injection, schedule: Q12HX018 (ip), vehicle: Klucel (hydroxypropylcellulose) (HPC) 100 % of control | dose: 4.0 mg/kg/injection, schedule: Q12HX018 (ip), vehicle: Klucel (hydroxypropylcellulose) (HPC) 96 % of control | dose: 8.0 mg/kg/injection, schedule: Q12HX018 (ip), vehicle: Klucel (hydroxypropylcellulose) (HPC) 107 % of control | dose: 8.0 mg/kg/injection, schedule: Q12HX018 (ip), vehicle: other 110 % of control | dose: 10.0 mg/kg/injection, schedule: Q12HX018 (ip), vehicle: other 101 % of control | dose: 12.0 mg/kg/injection, schedule: Q12HX018 (ip), vehicle: other 100 % of control

CN(C)C(C(=O)O)c1ccccc1 (stereo not drawn)
inactive: dose: 100.0 mg/kg/injection, schedule: Q04DX002 (ip), vehicle: saline with Tween-80 101 % of control | dose: 200.0 mg/kg/injection, schedule: Q04DX002 (ip), vehicle: saline with Tween-80 97 % of control | dose: 400.0 mg/kg/injection, schedule: Q04DX002 (ip), vehicle: saline with Tween-80 97 % of control

CNC(=S)N/N=C(/C)C(=O)O
inactive: [8] 96 % of control | [9] 96 % of control | [10] 96 % of control | [11] 91 % of control | [12] 102 % of control | [13] 88 % of control

[Cl][Sn]([Cl])([Cl])[Cl]
inactive: [3] 95 % of control

CN(C)c1ccc(C(=O)C(O)c2ccccc2)cc1 (stereo not drawn)
inactive: [8] 92 % of control | [9] 98 % of control | [10] 88 % of control | [11] 100 % of control | [12] 88 % of control | [13] 96 % of control

CCCCOCCOCCOc1ccc(Cl)cc1
inactive: [14] 100 % of control | [15] 113 % of control | [16] 100 % of control

O=[N+]([O-])c1ccc(O)c(C=Nc2cnc3ccccc3c2)c1
inactive: [17] 88 % of control | [18] 93 % of control | [19] 90 % of control

O=C(O)C(O)C(O)C(=O)O (stereo not drawn)
inactive: [2] 106 % of control | [4] 104 % of control | [6] 102 % of control

O=C1C2C(C(=O)N1c1ccc(O)cc1)C1c3ccccc3C2C2CCCCN21 (stereo not drawn)
inactive: dose: 12.5 mg/kg/injection, schedule: Q04DX003 (ip), vehicle: saline 102 % of control | dose: 25.0 mg/kg/injection, schedule: Q04DX003 (ip), vehicle: saline 103 % of control | dose: 50.0 mg/kg/injection, schedule: Q04DX003 (ip), vehicle: saline 102 % of control | [3] 100 % of control

CC(=O)n1cc(CS)c(=O)[nH]c1=O
inactive: [20] 106 % of control

COc1ncc(F)c(OC)n1
inactive: [20] 100 % of control | [21] 96 % of control | [22] 91 % of control

CN1C(C(=O)c2ccc(-c3ccccc3)cc2)C1c1ccccc1 (stereo not drawn)
inactive: dose: 100.0 mg/kg/injection, schedule: Q01DX001 (ip), vehicle: Klucel (hydroxypropylcellulose) (HPC) 93 % of control | dose: 200.0 mg/kg/injection, schedule: Q01DX001 (ip), vehicle: Klucel (hydroxypropylcellulose) (HPC) 97 % of control | dose: 400.0 mg/kg/injection, schedule: Q01DX001 (ip), vehicle: Klucel (hydroxypropylcellulose) (HPC) 110 % of control

CSc1ccc(C(CNC(C)=O)C(C#N)C#N)cc1 (stereo not drawn)
inactive: [20] 101 % of control | [21] 103 % of control | [22] 89 % of control

Nc1nc2c(ncn2C2CC(CO)C(O)C2O)c(=O)[nH]1 (stereo not drawn)
inactive: dose: 9.5 mg/kg/injection, schedule: Q01DX009 (ip), vehicle: other 101 % of control | dose: 19.0 mg/kg/injection, schedule: Q04DX003 (ip), vehicle: other 94 % of control | dose: 38.0 mg/kg/injection, schedule: Q04DX003 (ip), vehicle: other 92 % of control | [1] 88 % of control

O=C(O)c1ccccc1C(NC(=O)N1C(=O)C=CC1=O)NC(=O)N1C(=O)C=CC1=O
inactive: [17] 97 % of control | [18] 97 % of control | [19] 106 % of control

N=C(N)c1ccc(OCCCCCCOc2ccc(C(=N)N)cc2)cc1
inactive: dose: 5.0 mg/kg/injection, schedule: Q01DX001 (ip), vehicle: saline 100 % of control | dose: 10.0 mg/kg/injection, schedule: Q01DX001 (ip), vehicle: saline 100 % of control | dose: 20.0 mg/kg/injection, schedule: Q01DX001 (ip), vehicle: saline 103 % of control | dose: 40.0 mg/kg/injection, schedule: Q01DX001 (ip), vehicle: saline 101 % of control | dose: 80.0 mg/kg/injection, schedule: Q01DX001 (ip), vehicle: saline 92 % of control

CCCCCCC(C)C1C(=O)NC(=S)NC1=O (stereo not drawn)
inactive: dose: 75.0 mg/kg/injection, schedule: Q01DX001 (ip), vehicle: carboxymethylcellulose (CMC) 93 % of control | dose: 150.0 mg/kg/injection, schedule: Q01DX001 (ip), vehicle: carboxymethylcellulose (CMC) 91 % of control | dose: 300.0 mg/kg/injection, schedule: Q01DX001 (ip), vehicle: carboxymethylcellulose (CMC) 94 % of control

COc1ccccc1C(=O)N/N=C\c1ccc(Cl)cc1Cl
inactive: [2] 111 % of control | [3] 122 % of control | [4] 97 % of control | [5] 103 % of control | [6] 94 % of control | [7] 100 % of control

CCCCCCCCCCCCN1C(C)=CS/C1=C\C=C\c1scc(C)[n+]1CCCCCCCCCCCC
inactive: dose: 0.78 mg/kg/injection, schedule: Q01DX009 (ip), vehicle: saline with Tween-80 103 % of control | dose: 1.56 mg/kg/injection, schedule: Q01DX009 (ip), vehicle: saline with Tween-80 117 % of control | dose: 6.25 mg/kg/injection, schedule: Q01DX009 (ip), vehicle: saline with Tween-80 90 % of control

Cc1c(F)cccc1OCC(=O)O
inactive: [23] 111 % of control | [24] 108 % of control | [25] 105 % of control

O=C(O)/C=C/c1ccncc1
inactive: dose: 100.0 mg/kg/injection, schedule: Q01DX001 (ip), vehicle: other 103 % of control | [23] 93 % of control | [3] 103 % of control | dose: 200.0 mg/kg/injection, schedule: Q01DX001 (ip), vehicle: other 105 % of control | [24] 86 % of control | [5] 92 % of control | dose: 400.0 mg/kg/injection, schedule: Q01DX001 (ip), vehicle: other 97 % of control | [25] 93 % of control

CC(C)c1ccc(-n2c(=S)[nH]c3ccccc3c2=O)cc1
inactive: [14] 107 % of control | [15] 93 % of control | [16] 104 % of control
